Laboratory results reported in article PMC7530112 (European journal of medicinal chemistry, 2020).

Key:
[1] = Microsomal stability assay, human liver microsomes; conditions: without Cobi; for Phase I metabolic stability t1/2, HLM: 1 μM compound, 0.5 mg/mL microsomal protein, NADPH
[2] = system: HIV-1NL4-3; experiment: Anti-HIV-1 assay in TZM-GFP cells; conditions: for Inhibition% at 2 μM: 2 μM compound; for Inhibition% at 20 μM: 20 μM compound; for fold higher antiviral potency than PF74: EC50 compared with PF74
[3] = Microsomal stability assay, mouse liver microsomes; conditions: without Cobi, 1 μM compound, 0.5 mg/mL microsomal protein, NADPH

Compound | Inhibition% at 2 μM [2] [%] | Inhibition% at 20 μM [2] | other results
(2S)-N-Methyl-2-(2-(7-methyl-2-oxoindolin-3-yl)acetamido)-N,3-diphenylpropanamide [Compound 16] | 0 | 91% | fold improved half-life over PF74 in HLMs [1]: 7 to 10 fold; Phase I metabolic stability t1/2, HLM [1]: 7.0 min; Phase I metabolic stability t1/2, MLM [3]: 1 min
(S)-2-(2-(1,3-Dimethyl-2,6-dioxo-1,2,3,6-tetrahydro-7H-purin-7-yl)acetamido)-N-(3-fluorophenyl)-N-methyl-3-phenylpropanamide [Compound 40] | 1 | 67% | 
2-(2-(2,5-Dioxo-3’,4’-dihydro-2’H-spiro[imidazolidine-4,1’-naphthalen]-1-yl)acetamido)-N-methyl-N,3-diphenylpropanamide [Compound 54] |  | −/32% | 
(S)-N-Methyl-2-(2-(naphthalen-1-yl)acetamido)-3-phenyl-N-(p-tolyl)propanamide [Compound 32] | 96 | 100% | 
(S)-N-Methyl-2-(2-(naphthalen-2-yl)acetamido)-3-phenyl-N-(p-tolyl)propanamide [Compound 26] | 80 | 99% | 
(S)-N-(4-Chlorophenyl)-2-(2-(5-hydroxy-1H-indol-3-yl)acetamido)-N-methyl-3-phenylpropanamide [Compound 12] |  |  | fold higher antiviral potency than PF74 [2]: up to 20 fold
(S)-2-(2-(1,3-Dimethyl-2,6-dioxo-1,2,3,6-tetrahydro-7H-purin-7-yl)acetamido)-N-methyl-3-phenyl-N-(p-tolyl)propanamide [Compound 38] | 18 | 98% | 
2-(2-(2,4-Dioxo-1,3-diazaspiro[4.5]decan-3-yl)acetamido)-N-methyl-N,3-diphenylpropanamide [Compound 44] |  | −/89% | 
(2S)-N-(3-Fluorophenyl)-N-methyl-2-(2-(7-methyl-2-oxoindolin-3-yl)acetamido)-3-phenylpropanamide [Compound 19] | 0 | 93% | 
(S)-N-(3-Fluorophenyl)-N-methyl-2-(2-(naphthalen-1-yl)acetamido)-3-phenylpropanamide [Compound 35] | 44 | 97% | 
(S)-N-(3-Chlorophenyl)-N-methyl-2-(2-(naphthalen-2-yl)acetamido)-3-phenylpropanamide [Compound 28] | 0 | 94% | 
(S)-N-(4-Chlorophenyl)-2-(2-(5-methoxy-1H-indol-3-yl)acetamido)-N-methyl-3-phenylpropanamide [Compound 7] |  |  | Phase I metabolic stability t1/2, HLM [1]: 1.8 min; Phase I metabolic stability t1/2, MLM [3]: 0.6 min
(S)-N-(4-Chlorophenyl)-2-(2-(1,3-dimethyl-2,6-dioxo-1,2,3,6-tetrahydro-7H-purin-7-yl)acetamido)-N-methyl-3-phenylpropanamide [Compound 41] | 6 | 96% | 
2-(2-(2,5-Dioxo-3’,4’-dihydro-2’H-spiro[imidazolidine-4,1’-naphthalen]-1-yl)acetamido)-N-methyl-3-phenyl-N-(p-tolyl)propanamide [Compound 57] |  | −/41% | 
(S)-2-(2-(5-Methoxy-1H-indol-3-yl)acetamido)-N-methyl-N,3-diphenylpropanamide [Compound 3] |  |  | Phase I metabolic stability t1/2, HLM [1]: 1.2 min; Phase I metabolic stability t1/2, MLM [3]: 0.5 min
(S)-N-Methyl-2-(2-(naphthalen-1-yl)acetamido)-N,3-diphenylpropanamide [Compound 31] | 66 | 100% | Phase I metabolic stability t1/2, HLM [1]: 0.6 min; Phase I metabolic stability t1/2, MLM [3]: 0.5 min
2-(2-(2,4-Dioxo-1,3-diazaspiro[4.5]decan-3-yl)acetamido)-N-methyl-3-phenyl-N-(p-tolyl)propanamide [Compound 47] |  | −/92% | Phase I metabolic stability t1/2, HLM [1]: 3.3 min; Phase I metabolic stability t1/2, MLM [3]: 1.2 min
2-(2-(2,4-Dioxo-1,3-diazaspiro[4.5]decan-3-yl)acetamido)-N-ethyl-N,3-diphenylpropanamide [Compound 53] |  | −/92% | 
N-(3-Chlorophenyl)-2-(2-(2,4-dioxo-1,3-diazaspiro[4.5]decan-3-yl)acetamido)-N-methyl-3-phenylpropanamide [Compound 51] | 9 | 98% | 
(2S)-N-(4-Chlorophenyl)-N-methyl-2-(2-(7-methyl-2-oxoindolin-3-yl)acetamido)-3-phenylpropanamide [Compound 17] | 17 | 96% | 

Compound | Inhibition% at 2 μM [2] [%] | Inhibition% at 20 μM [2] | other results
(S)-2-(2-(5-Hydroxy-1H-indol-3-yl)acetamido)-N-methyl-3-phenyl-N-(p-tolyl)propanamide [Compound 9] |  |  | fold higher antiviral potency than PF74 [2]: up to 20 fold
N-(3-Bromophenyl)-2-(2-(2,4-dioxo-1,3-diazaspiro[4.5]decan-3-yl)acetamido)-N-methyl-3-phenylpropanamide [Compound 52] |  | −/36% | 
2-(2-(2,5-Dioxo-3’,4’-dihydro-2’H-spiro[imidazolidine-4,1’-naphthalen]-1-yl)acetamido)-N,3-diphenylpropanamide [Compound 55] |  | −/22% | 
(S)-N-(3-Fluorophenyl)-N-methyl-2-(2-(naphthalen-2-yl)acetamido)-3-phenylpropanamide [Compound 29] | 0 | 97% | 
(S)-2-(2-(1,3-Dimethyl-2,6-dioxo-1,2,3,6-tetrahydro-7H-purin-7-yl)acetamido)-N-methyl-N,3-diphenylpropanamide [Compound 37] | 10 | 94% | fold improved half-life over PF74 in HLMs [1]: 7 to 10 fold; Phase I metabolic stability t1/2, HLM [1]: 4.7 min; Phase I metabolic stability t1/2, MLM [3]: 1.2 min
(S)-N-Methyl-2-(2-(naphthalen-2-yl)acetamido)-N,3-diphenylpropanamide [Compound 25] | 40 | 98% | Phase I metabolic stability t1/2, HLM [1]: 1.8 min; Phase I metabolic stability t1/2, MLM [3]: 0.5 min
(S)-N-(3-Chlorophenyl)-2-(2-(1,3-dimethyl-2,6-dioxo-1,2,3,6-tetrahydro-7H-purin-7-yl)acetamido)-N-methyl-3-phenylpropanamide [Compound 42] | 0 | 71% | 
COc1ccc(N(C)C(=O)C(Cc2ccccc2)NC(=O)CN2C(=O)NC3(CCCCC3)C2=O)cc1 (centres unmarked) [Compound 46, 2-(2-(2,4-Dioxo-1,3-diazaspiro[4.5]decan-3-yl)acetamido)-N-(4-methoxyphenyl)-N-methyl-3-phenylpropanamide] |  | −/93% | fold improved half-life over PF74 in HLMs [1]: 7 to 10 fold; Phase I metabolic stability t1/2, HLM [1]: 5.2 min; Phase I metabolic stability t1/2, MLM [3]: 0.7 min
(S)-2-(2-(5-Hydroxy-1H-indol-3-yl)acetamido)-N-methyl-N,3-diphenylpropanamide [Compound 8] |  |  | fold higher antiviral potency than PF74 [2]: up to 20 fold
(S)-2-(2-(1,3-Dimethyl-2,6-dioxo-1,2,3,6-tetrahydro-7H-purin-7-yl)acetamido)-N-(4-fluorophenyl)-N-methyl-3-phenylpropanamide [Compound 39] | 14 | 85% | 
2-(2-(2,5-Dioxo-3’,4’-dihydro-2’H-spiro[imidazolidine-4,1’-naphthalen]-1-yl)acetamido)-N-(4-methoxyphenyl)-N-methyl-3-phenylpropanamide [Compound 56] |  | −/20% | 
(2S)-2-(2-(4,7-Dimethyl-2-oxoindolin-3-yl)acetamido)-N-methyl-N,3-diphenylpropanamide [Compound 20] |  |  | Phase I metabolic stability t1/2, HLM [1]: 1.5 min; Phase I metabolic stability t1/2, MLM [3]: 0.6 min
(S)-N-(3-Chlorophenyl)-N-methyl-2-(2-(naphthalen-1-yl)acetamido)-3-phenylpropanamide [Compound 34] | 53 | 96% | 
2-(2-(2,4-Dioxo-1,3-diazaspiro[4.5]decan-3-yl)acetamido)-N-(3-fluorophenyl)-N-methyl-3-phenylpropanamide [Compound 49] | 24 | 98% | 
(S)-N-(3-Chlorophenyl)-2-(2-(5-hydroxy-1H-indol-3-yl)acetamido)-N-methyl-3-phenylpropanamide [Compound 13] |  |  | fold potency drop on moving the Cl from 4 position to 3 ([2]; compared with 4-Cl analog 12): 10 fold
CN(C(=O)C(Cc1ccccc1)NC(=O)CN1C(=O)NC2(CCCCC2)C1=O)c1ccc(F)cc1 (centres unmarked) [Compound 48, 2-(2-(2,4-Dioxo-1,3-diazaspiro[4.5]decan-3-yl)acetamido)-N-(4-fluorophenyl)-N-methyl-3-phenylpropanamide] | 9 | 99% | Phase I metabolic stability t1/2, HLM [1]: 1.1 min; Phase I metabolic stability t1/2, MLM [3]: 0.5 min
(S)-N-Ethyl-2-(2-(naphthalen-1-yl)acetamido)-N,3-diphenylpropanamide [Compound 36] | 53 | 98% | 
(S)-2-(2-(1,3-Dimethyl-2,6-dioxo-1,2,3,6-tetrahydro-7H-purin-7-yl)acetamido)-N-ethyl-N,3-diphenylpropanamide [Compound 43] | 0 | 94% | 
2-(2-(2,4-Dioxo-1,3-diazaspiro[4.5]decan-3-yl)acetamido)-N,3-diphenylpropanamide [Compound 45] |  | −/0% | 
(S)-N-Ethyl-2-(2-(naphthalen-2-yl)acetamido)-N,3-diphenylpropanamide [Compound 30] | 46 | 97% | 
